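Growth conditions: 96-well plates. Treatment: test compound, 48 hours, 5 concentrations. Analysis: linear interpolation between bracketing concentrations; unreached endpoints set to highest concentration. GI50 marks 50% less growth. Definition used: TGI = concentration required for complete inhibition of growth.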
Assays:
Assay in all cases: NCI-60 cell line screen, 48 h
HCC-2998 colon = tested on: HCC-2998 colon
SF-539 CNS = tested on: SF-539 CNS
786-0 renal = tested on: 786-0 renal
TK-10 renal = tested on: TK-10 renal
SK-OV-3 ovarian = tested on: SK-OV-3 ovarian
CCRF-CEM leukemia = tested on: CCRF-CEM leukemia
OVCAR-3 ovarian = tested on: OVCAR-3 ovarian
MDA-MB-435 = tested on: MDA-MB-435
MDA-MB-231 breast = tested on: MDA-MB-231 breast
PC-3 prostate = tested on: PC-3 prostate

SMILES	TGI (HCC-2998 colon)	TGI (SF-539 CNS)	TGI (786-0 renal)	TGI (TK-10 renal)	TGI (SK-OV-3 ovarian)	TGI (CCRF-CEM leukemia)	TGI (OVCAR-3 ovarian)	GI50 (HCC-2998 colon)	GI50 (SF-539 CNS)	GI50 (786-0 renal)	GI50 (MDA-MB-435)	TGI (MDA-MB-435)	GI50 (TK-10 renal)	GI50 (SK-OV-3 ovarian)	GI50 (MDA-MB-231 breast)	TGI (MDA-MB-231 breast)	GI50 (PC-3 prostate)	TGI (PC-3 prostate)	GI50 (OVCAR-3 ovarian)	GI50 (CCRF-CEM leukemia)
Cc1cccc(C)c1NC(=O)C1C(=O)N(c2c(C)cccc2C)C(=O)/C1=N\N (stereo unspecified)	> 100 µM	> 100 µM	> 100 µM	> 100 µM	> 100 µM	> 100 µM	> 100 µM													
CN1C(=O)C2C3C=C4c5ccccc5N(c5ccccc5)C4(C2C1=O)[C@H]1C(=O)N(C)C(=O)[C@@H]31 (stereo partly specified)	> 100 µM		> 100 µM	> 100 µM	> 100 µM	> 100 µM	> 100 µM													
Oc1ccc2ccccc2c1N=Nc1ccsc1	> 100 µM	> 100 µM	> 100 µM	> 100 µM	> 100 µM	> 100 µM	> 100 µM													
CO/N=C(\C)c1ccc(Nc2cc(-c3ccccc3)nc3ccc(OC)cc23)cc1	15.9 µM	4.74 µM	4.5 µM	6.85 µM	60.4 µM			3.16 µM	2.72 µM	2.17 µM	1.76 µM	3.46 µM	2.52 µM	15.2 µM	1.23 µM	3.24 µM	4.17 µM	16.2 µM		
C[C@]12CC/C(=N\O)C=C1CC[C@@H]1C2CC[C@@]2(C)C1CC[C@@H]2OC1CCCCO1 (stereo partly specified)	29.5 µM	> 10 µM	33.3 µM	42.2 µM	36.3 µM		31.9 µM													
COc1cc(C2SCC(=O)N2c2ncc(C)s2)cc(OC)c1OC (stereo unspecified)		43.9 µM	> 50 µM	> 50 µM			44.8 µM		13.5 µM	> 50 µM	2.91 µM	24.9 µM	21.4 µM				31.4 µM	> 50 µM	14.3 µM	
O=c1ncc(F)cn1C1OC(CO)C(O)C1O (stereo unspecified)	> 51.4 µM	> 88 µM	> 100 µM	> 100 µM	> 100 µM	> 63.6 µM	> 67.4 µM													
O=c1[nH]c(=S)[nH]c2c1CN(CCCN1CCOCC1)CN2	73.3 µM	58.2 µM	> 100 µM	> 100 µM			> 100 µM					69.6 µM				66.4 µM		57.1 µM		
CC(C)([NH-])CO.CC(C)([NH-])CO.[Cl][Cd][Cl]	59.5 µM	33.2 µM	31.3 µM	53.6 µM		38.8 µM	38 µM	19.3 µM	18.7 µM	16.6 µM			19.1 µM						20.2 µM	15.9 µM
Cn1cnc([N+](=O)[O-])c1Sc1nccn1-c1cccc2ccccc12	> 100 µM	90.2 µM	> 100 µM	> 100 µM	> 100 µM	68.5 µM	75.2 µM													
C/C(=N\NS(=O)(=O)c1ccc(C)cc1)P(=O)(O)O		> 100 µM	> 100 µM	> 100 µM	> 100 µM		> 100 µM					> 100 µM				> 100 µM		> 100 µM		
Cc1ccc(S(=O)(=O)NC2(C=O)CCCC3CCCCC32)cc1 (stereo unspecified)	> 100 µM	> 100 µM	> 100 µM	> 100 µM	> 100 µM	> 100 µM	> 100 µM													
O=C1C=CC(=Nc2cc(Br)c(O)c(Br)c2)C=C1	34.6 µM	64.1 µM	60.6 µM	> 100 µM	> 100 µM	> 100 µM	> 100 µM	17.5 µM	21.5 µM	23.6 µM	18.9 µM	> 100 µM	32.9 µM	52.8 µM	31.5 µM	> 100 µM			19.7 µM	3.53 µM
C/C(CC(=O)Nc1ccc(C)c(C)c1)=N\NC(N)=O	> 100 µM	> 100 µM	> 100 µM	> 100 µM	> 100 µM	> 100 µM	> 100 µM													
COc1c2ccoc2c(OC)c2oc(=O)ccc12	> 100 µM	> 100 µM	> 100 µM	> 100 µM		> 100 µM	> 100 µM					> 100 µM				> 100 µM		> 100 µM		
O=[P+](O)c1ccsc1		> 100 µM	> 100 µM	> 100 µM	> 100 µM	> 100 µM														
CC(Nc1ccc(S(=O)(=O)N=C(N)N)cc1)c1c2ccccc2nc2ccccc12 (stereo unspecified)	82.7 µM	63.4 µM	> 100 µM	> 100 µM	73.6 µM	60.5 µM	> 10 µM													
COC(=O)C(C(=O)C(=O)Nc1ccc([N+](=O)[O-])cc1[N+](=O)[O-])c1nc2ccc(Cl)cc2[nH]c1=O (stereo unspecified)	> 100 µM	> 100 µM	> 100 µM	> 100 µM	> 100 µM	> 100 µM	> 100 µM													
NCC1OC(n2cnc3c(N)ncnc32)CC1O (stereo unspecified)		> 100 µM	> 100 µM	> 100 µM	> 100 µM	> 100 µM	> 100 µM					> 100 µM				> 100 µM		> 100 µM		
CC(C)(C)c1cc(-n2c(-c3ccc(Cl)cc3)nc3cc(C(=O)Nc4ccc(Cl)cc4)ccc32)n[nH]1		> 100 µM	> 100 µM	> 100 µM	66.4 µM		23.2 µM		28 µM	6.18 µM			3.66 µM	21.6 µM	23.7 µM	> 100 µM	3.29 µM	> 100 µM	3.63 µM	
C#CCSc1cc(Cl)c(C)cc1S(=O)(=O)Nc1nc2ccccc2o1	48.3 µM	39.1 µM	91.4 µM	> 100 µM		> 100 µM	76.9 µM	22.5 µM	20.2 µM	31.9 µM	27.8 µM	62.9 µM	48.5 µM		46.8 µM	> 100 µM	32.6 µM	> 100 µM	31.9 µM	26.2 µM
O=c1c(Br)cc2nc3ccccc3sc-2c1Br	> 100 µM	> 100 µM	30.8 µM	> 100 µM	> 100 µM	> 100 µM	32.5 µM													
O=C(O)CCC(N=Cc1nc(-c2ccccc2)oc1O)C(=O)O (stereo unspecified)	> 100 µM	> 100 µM	> 100 µM	> 100 µM	> 100 µM	> 100 µM	> 100 µM													
